Results taken from US20070093520A1, “Method of treatment of diarrhea-predominant irritable bowel syndrome in a subject” (priority 2005, published 2007).

System: diarrhea-predominant IBS subjects
Experiment: 3007 Study: open-label 52-week safety study, adverse events and withdrawals
Details: Overall

## Cc1nccn1C[C@H]1CCc2c(c3cccc4c3n2CCC4)C1=O [cilansetron, (R)-(−)-4,5,6,8,9,10-hexahydro-10-[(2-methyl-1H-imidazol-1-yl)methyl]-11H-pyrido-[3,2,1-jk]-carbazol-11-one]
  TEAE: Faeces Abnormal: 9 (2%) n (%)
  TEAE: Faeces Hard: 6 (1%) n (%)
  TEAE: Fall: 4 (<1%) n (%)
  TEAE: Fatigue: 13 (2%) n (%)
  TEAE: Fatigue Aggravated: 1 (<1%) n (%)
  TEAE: Febrile Disorders: 3 (<1%) n (%)
  TEAE: Fibroma NOS: 1 (<1%) n (%)
  TEAE: Fibromyalgia: 1 (<1%) n (%)
  TEAE: Flatulence: 26 (5%) n (%)
  TEAE: Flatulence, Bloating and Distension: 36 (7%) n (%)
  TEAE: Fluid Intake Increased: 1 (<1%) n (%)
  TEAE: Fluid in Middle Ear: 1 (<1%) n (%)
  TEAE: Flushing: 1 (<1%) n (%)
  TEAE: Food Allergy: 1 (<1%) n (%)
  TEAE: Food Poisoning NOS: 3 (<1%) n (%)
  TEAE: Foot Fracture: 2 (<1%) n (%)
  TEAE: Fractures and Dislocations NEC: 1 (<1%) n (%)
  TEAE: Frequent Bowel Movements: 1 (<1%) n (%)
  TEAE: Fungal Infection NOS: 3 (<1%) n (%)
  TEAE: Fungal Infections NEC: 8 (1%) n (%)
  TEAE: Gamma-Glutamyltransferase Increased: 8 (1%) n (%)
  TEAE: Gastric Irritation: 1 (<1%) n (%)
  TEAE: Gastritis (Excl Infective): 3 (<1%) n (%)
  TEAE: Gastritis NOS: 3 (<1%) n (%)
  TEAE: Gastroenteritis NOS: 9 (2%) n (%)
  TEAE: Gastroenteritis Viral NOS: 11 (2%) n (%)
  TEAE: Gastrointestinal Atonic and Hypomotility Disorders NEC: 133 (25%) n (%)
  TEAE: Gastrointestinal Disorders: 268 (50%) n (%)
  TEAE: Gastrointestinal Disorders NEC: 3 (<1%) n (%)
  TEAE: Gastrointestinal Dyskinetic Disorders: 4 (<1%) n (%)
  TEAE: Gastrointestinal Histopathology Procedures: 37 (7%) n (%)
  TEAE: Gastrointestinal Infections - Pathogen Class Unspecified: 9 (2%) n (%)
  TEAE: Gastrointestinal Inflammatory Disorders NEC: 2 (<1%) n (%)
  TEAE: Gastrointestinal Motility Disorder NOS: 3 (<1%) n (%)
  TEAE: Gastrointestinal Mucosal Dystrophies and Secretion Disorders: 1 (<1%) n (%)
  TEAE: Gastrointestinal Signs and Symptoms NEC: 4 (<1%) n (%)
  TEAE: Gastrointestinal Spastic and Hypermotility Disorders: 5 (<1%) n (%)
  TEAE: Gastrointestinal and Abdominal Pains (Excl Oral and Throat): 69 (13%) n (%)
  TEAE: General Disorders and Administration Site Conditions: 42 (8%) n (%)
  TEAE: General Signs and Symptoms NEC: 9 (2%) n (%)
  TEAE: Gilbert's Syndrome: 1 (<1%) n (%)
  TEAE: Gingival Abscess: 2 (<1%) n (%)
  TEAE: Gingival Atrophy: 1 (<1%) n (%)
  TEAE: Gingival Disorders NEC: 3 (<1%) n (%)
  TEAE: Gingival Pain: 1 (<1%) n (%)
  TEAE: Gingival Pains: 1 (<1%) n (%)
  TEAE: Gingivitis: 2 (<1%) n (%)
  TEAE: Gingivitis Infection NOS: 1 (<1%) n (%)
  TEAE: Glucose Tolerance Impaired: 1 (<1%) n (%)
  TEAE: Glucose Urine Present: 1 (<1%) n (%)
  TEAE: Glycosuria: 1 (<1%) n (%)
  TEAE: Goitre: 1 (<1%) n (%)
  TEAE: Gout: 2 (<1%) n (%)
  TEAE: Groin Pain: 1 (<1%) n (%)
  TEAE: Haematocrit Decreased: 1 (<1%) n (%)
  TEAE: Haematoma NOS: 1 (<1%) n (%)
  TEAE: Haematuria: 4 (<1%) n (%)
  TEAE: Haemoglobin Decreased: 1 (<1%) n (%)
  TEAE: Haemorrhoidal Haemorrhage: 4 (<1%) n (%)
  TEAE: Haemorrhoids: 11 (2%) n (%)
  TEAE: Haemorrhoids Aggravated: 1 (<1%) n (%)
  TEAE: Haemorrhoids and Gastrointestinal Varices (Excl Oesophageal): 15 (3%) n (%)
  TEAE: Halitosis: 1 (<1%) n (%)
  TEAE: Hallucination NOS: 1 (<1%) n (%)
  TEAE: Hallucination, Auditory: 1 (<1%) n (%)
  TEAE: Hand Fracture: 1 (<1%) n (%)
  TEAE: Headache NOS: 31 (6%) n (%)
  TEAE: Headache NOS Aggravated: 5 (<1%) n (%)
  TEAE: Headaches NEC: 39 (7%) n (%)
  TEAE: Hearing Losses: 1 (<1%) n (%)
  TEAE: Heart Rate Increased: 2 (<1%) n (%)
  TEAE: Heart Rate and Pulse Investigations: 2 (<1%) n (%)
  TEAE: Heat Exhaustion: 1 (<1%) n (%)
  TEAE: Heat Injuries (Excl Thermal Burns): 1 (<1%) n (%)
  TEAE: Helicobacter Pylori Antibody Positive: 1 (<1%) n (%)
  TEAE: Hepatitis NOS: 1 (<1%) n (%)
  TEAE: Hepatobiliary Disorders: 5 (<1%) n (%)
  TEAE: Hepatobiliary Signs and Symptoms: 1 (<1%) n (%)
  TEAE: Hepatocellular Damage and Hepatitis NEC: 1 (<1%) n (%)
  TEAE: Hepatosplenomegaly NOS: 1 (<1%) n (%)
  TEAE: Hernia NOS: 1 (<1%) n (%)
  TEAE: Hernia Repair NOS: 1 (<1%) n (%)
  TEAE: Hernia Repairs: 1 (<1%) n (%)
  TEAE: Hernias NEC: 1 (<1%) n (%)
  TEAE: Herpes Simplex: 3 (<1%) n (%)
  TEAE: Herpes Simplex Aggravated: 1 (<1%) n (%)
  TEAE: Herpes Viral Infections: 5 (<1%) n (%)
  TEAE: Herpes Zoster: 1 (<1%) n (%)
  TEAE: Hiatus Hernia: 2 (<1%) n (%)
  TEAE: Hot Flushes NOS: 1 (<1%) n (%)
  TEAE: Hypercholesterolaemia: 6 (1%) n (%)
  TEAE: Hyperglycaemia NOS: 3 (<1%) n (%)
  TEAE: Hyperglycaemic Conditions NEC: 4 (<1%) n (%)
  TEAE: Hyperkeratoses: 1 (<1%) n (%)
  TEAE: Hyperkeratosis: 1 (<1%) n (%)
  TEAE: Hyperlipidaemia NOS: 1 (<1%) n (%)
  TEAE: Hyperlipidaemias NEC: 1 (<1%) n (%)
  TEAE: Hyperreflexia: 1 (<1%) n (%)
  TEAE: Hypersensitivity NOS: 2 (<1%) n (%)
  TEAE: Hypertension Aggravated: 2 (<1%) n (%)
  TEAE: Hypertension NOS: 13 (2%) n (%)
  TEAE: Hypoaesthesia: 2 (<1%) n (%)
  TEAE: Hypotension NOS: 1 (<1%) n (%)
  TEAE: Immune System Disorders: 9 (2%) n (%)
  TEAE: Inborn Errors of Bilirubin Metabolism: 1 (<1%) n (%)
  TEAE: Infected Varicose Vein: 1 (<1%) n (%)
  TEAE: Infections NEC: 4 (<1%) n (%)
  TEAE: Infections and Infestations: 173 (32%) n (%)
  TEAE: Influenza: 18 (3%) n (%)
  TEAE: Influenza Like Illness: 4 (1%) n (%)
  TEAE: Influenza Viral Infections: 18 (3%) n (%)
  TEAE: Ingrowing Nail: 1 (<1%) n (%)
  TEAE: Inguinal Hernia NOS: 1 (<1%) n (%)
  TEAE: Inguinal Hernias: 1 (<1%) n (%)
  TEAE: Injury, Poisoning and Procedural Complications: 47 (9%) n (%)
  TEAE: Inner Ear Disorders NEC: 1 (<1%) n (%)
  TEAE: Inner Ear Infections and Inflammations: 3 (<1%) n (%)
  TEAE: Inner Ear Signs and Symptoms: 3 (<1%) n (%)
  TEAE: Insomnia: 5 (<1%) n (%)
  TEAE: Insomnia Exacerbated: 1 (<1%) n (%)
  TEAE: Intermenstrual Bleeding*: 1 (<1%) n (%)
  TEAE: Intervertebral Disc Degeneration NOS: 2 (<1%) n (%)
  TEAE: Intervertebral Disc Disorder NOS: 1 (<1%) n (%)
  TEAE: Intervertebral Disc Disorders NEC: 5 (<1%) n (%)
  TEAE: Intervertebral Disc Herniation: 4 (<1%) n (%)
  TEAE: Intestinal Haemorrhages: 8 (1%) n (%)
  TEAE: Intraocular Pressure Increased: 2 (<1%) n (%)
  TEAE: Investigations: 126 (24%) n (%)
  TEAE: Irritability: 1 (<1%) n (%)
  TEAE: Irritable Bowel Syndrome: 1 (<1%) n (%)
  TEAE: Irritable Bowel Syndrome Aggravated: 3 (<1%) n (%)
  TEAE: Ischaemic Coronary Artery Disorders: 4 (<1%) n (%)
  TEAE: Joint Related Disorders NEC: 2 (<1%) n (%)
  TEAE: Joint Related Signs and Symptoms: 14 (3%) n (%)
  TEAE: Joint Sprain: 4 (<1%) n (%)
  TEAE: Joint Swelling: 1 (<1%) n (%)
  TEAE: Kidney Infection NOS: 1 (<1%) n (%)
  TEAE: Labyrinthitis NOS: 3 (<1%) n (%)
  TEAE: Laceration: 6 (1%) n (%)
  TEAE: Lacrimal Disorders: 2 (<1%) n (%)
  TEAE: Lactose Intolerance: 1 (<1%) n (%)
  TEAE: Laryngeal and Adjacent Sites Disorders NEC (Excl Infections and Neoplasms): 3 (<1%) n (%)
  TEAE: Laryngitis NOS: 3 (<1%) n (%)
  TEAE: Leiomyoma NOS: 1 (<1%) n (%)
  TEAE: Lethargy: 1 (<1%) n (%)
  TEAE: Leukopenia NOS: 2 (<1%) n (%)
  TEAE: Leukopenias NEC: 2 (<1%) n (%)
  TEAE: Libido Decreased: 1 (<1%) n (%)
  TEAE: Lid, Lash and Lacrimal Structural Disorders (Excl Congenital): 1 (<1%) n (%)
  TEAE: Ligament Sprain: 2 (<1%) n (%)
  TEAE: Limb Discomfort NOS: 1 (<1%) n (%)
  TEAE: Limb Injuries NEC (Incl Traumatic Amputation): 4 (<1%) n (%)
  TEAE: Limb Injury NOS: 2 (<1%) n (%)
  TEAE: Lip and Palate Disorders NEC: 1 (<1%) n (%)
  TEAE: Lipid Metabolism Disorder NOS: 1 (<1%) n (%)
  TEAE: Lipid Metabolism and Deposit Disorders NEC: 1 (<1%) n (%)
  TEAE: Lipoma NOS: 2 (<1%) n (%)
  TEAE: Liver Function Analyses: 23 (4%) n (%)
  TEAE: Liver Function Tests NOS Abnormal: 2 (<1%) n (%)
  TEAE: Localised Infection: 2 (<1%) n (%)
  TEAE: Localised Osteoarthritis: 1 (<1%) n (%)
  TEAE: Loss of Consciousness: 1 (<1%) n (%)
  TEAE: Lower Limb Fracture NOS: 1 (<1%) n (%)
  TEAE: Lower Limb Fractures and Dislocations: 3 (<1%) n (%)
  TEAE: Lower Respiratory Tract Signs and Symptoms: 2 (<1%) n (%)
  TEAE: Lower Respiratory Tract and Lung Infections: 28 (5%) n (%)
  TEAE: Lymphadenopathy: 2 (<1%) n (%)
  TEAE: Lymphangitis and Lymphatic Disorders NEC: 2 (<1%) n (%)
  TEAE: Lymphocyte Count Increased: 2 (<1%) n (%)
